Experimental data as given in patent US10539578B2, “Method for diagnosing, treating, or preventing mood disorders” (JAPAN TOBACCO INC., priority 2015, dated 2020).

How the values were obtained:
[1] = test system: C57BL/6NCrS1c mice; assay: Tail suspension test of mice after nasal administration of SITH-1-expressing adenovirus; format: in vivo; conditions: 80 mg/L Fluoxetine solution as drinking water from 2 weeks before SITH-1/Adv; test 7 days after nasal administration
Description: 8-week-old C57BL/6NCrS1c mice were raised at a room temperature of 24±1° C. and with lights on for 12 hours and off for 12 hours. After each of the mice was anesthetized with use of isoflurane, SITH-1/Adv or empty/Adv in an amount equivalent to 2.5×10^7 ifu was dropped into the nasal cavity, and was then sucked by the mice along with breathing. Then, the mice were returned to raising cages.
7 days after the nasal administration of SITH-1/Adv or empty/Adv, a tail suspension test was carried out for 10 minutes. A period of immobility time was measured with use of TailSuspScanTopScan (CleverSys, Inc.). The tail suspension test was carried out by suspending each mouse by taping the tail 1 cm from the end. […] In the experiment, 30 mice were used in each group.
Statistical significance (* indicates P<0.05, ** indicates P<0.01, and *** indicates P<0.001) was calculated by use of the Mann-Whitney U-test.
Then, it was studied whether or not an SSRI (selective serotonin reuptake inhibitor), which is an antidepressant, would suppress an increase in immobility time, the increase being caused by the nasal administration of the SITH-1/Adv. 80 mg/L of Fluoxetine solution as drinking water was given to 6-week-old mice, and then the mice were raised for 2 weeks. Then, SITH-1/Adv was nasally administered. 7 days after the nasal administration, a tail suspension test was carried out for 10 minutes. […]

[2] = test system: HHV-6 variant B HST strain; assay: SITH-1 expression in HHV-6-infected U373 cells in the presence of ganciclovir (Real-time PCR); format: cell-based; conditions: U373 cultured overnight with drug, one day after infection, relative to ganciclovir(−)
Description: In the presence of ganciclovir, human glial cell lines (U373) were infected with HHV-6, and SITH-1 expression levels in the infected cells was detected by use of Real-time PCR.
The U373 cells were cultured overnight in the presence of ganciclovir at concentrations indicated in the graph. Thereafter, the U373 cells were infected with HHV-6 variant B HST strain, and after one day had passed after this infection, the SITH-1 expression levels in the cells were detected by use of Real-time PCR.
With regards to an effective concentration of ganciclovir against HHV-6 variant B, IC50 was presumed to be approximately 10 μM. As such, three concentration levels obtained by 3-fold dilution were used, with 10 μM being a median amount.
FIG. 25 illustrates suppression of SITH-1 expression by ganciclovir. The vertical axis of FIG. 25 represents SITH-1 mRNA expression level as a ratio, where 1 is the ratio for ganciclovir(−). […] When ganciclovir was used in an amount of 3 μM, 10 μM, and 30 μM, SITH-1 mRNA expression levels were reduced by approximately 20%, 40%, and 80% or more, respectively.

[3] = test system: HHV-6 variant B; conditions: presumed value used to choose test concentrations; read-out: IC50 (effective concentration against HHV-6 variant B); cited from earlier work
[4] = test system: HHV-6 HST strain; assay: Suppression of SITH-1 expression by heparin and anti-heparan sulfate peptide in HHV-6-infected U373 cells; format: cell-based; conditions: 10 unit/mL reacted with U373 cells at 4° C. for 1 hour before infection; MOI 3; 48 hours
Description: U373 astrocytoma cells were removed with use of trypsin-EDTA, and then a medium (10% FBS-containing DMEM) was added, so that the resultant cells were at 1×10^5 cell/mL. Then, the U373 cells were reacted with 10 unit/mL of Novo-Heparin (Mochida Pharmaceutical Co., Ltd.) or 0.1 mM of anti-3-OS Heparan sulfate (HS) peptide trifluoroacetate salt (Sigma-Aldrich) at 4° C. for 1 hour. The U373 cells were also reacted only with a medium as a control at 4° C. for 1 hour. The resultant cells were washed 3 times with a medium. Then, the U373 cells thus washed were infected with a HHV-6 HST strain virus fluid (2.9×10^6 ffu/ml) at a MOI of 3 by centrifugation. Then, the infected cells were cultured at 37° C. for 48 hours in a CO2 incubator.
From the resultant infected cells, RNA was purified by use of an RNeasy Mini Kit (Qiagen) in accordance with the standard protocol. Then, cDNA was synthesized by use of a PrimeScript RT Reagent Kit (Takara Bio). Finally, expression levels of SITH-1 and GAPDH mRNA were measured by a method similar to that used in the above (3.1).

[5] = test system: HEK293 cells; assay: Effect of intracellular protein expression on intracellular calcium concentration (Fluo 4-AM fluorescence); format: cell-based; conditions: protein temporarily overexpressed in HEK293 cells, 24 hours after transfection; vs control vector (S-C protein: vs SITH-1-expressing cell)
Description: In order to express SITH-1, the S-C protein, and the C-S protein intracellularly, pFLAG-CMV-5b (SIGMA-ALDRICH), which is an expression vector for mammals, was used to construct SITH-1/pFLAG-CMV-5b, SITH-CAML/pFLAG-CMV-5b, and CAML-SITH/pFLAG-CMV-5b. In each of the fusion proteins, the spacer (SEQ ID NO: 6) shown in FIG. 1 was inserted between SITH-1 and CAML. pFLAG-CMV-5b was used as a control. Each vector was transfected into HEK293 cells by use of a CalPhos (trademark) Mammalian Transfection Kit (Takara Bio), such that each protein was temporarily overexpressed intracellularly.
A Calcium Kit II-Fluo 4 (Dojindo) was used to cause cells to take up Fluo 4-AM, 24 hours after transfection. Thereafter, an ArrayScan XTI System (ThermoFisher Scientific) was used to measure fluorescence intensities (λex=485 nm, λem=518) in cells expressing the various proteins (700 to 1300 cells per protein type).
FIG. 26 indicates the effects of SITH-1 expression, S-C protein expression, and C-S protein expression on intracellular calcium concentration. Median, maximum, and minimum values are indicated as a box-and-whisker plot. Statistical significance (′ indicates P<0.01) was determined via a multiple comparison test using Scheffe's method.

CNCCC(Oc1ccc(C(F)(F)F)cc1)c1ccccc1 (stereo not shown) [Fluoxetine]
immobility time increases in SITH-1/Adv nasal administration mice (tail suspension test) [1]: suppressed

Nc1nc(O)c2ncn(COC(CO)CO)c2n1 [ganciclovir]
SITH-1 mRNA expression level reduced by ([2]; ganciclovir 3 μM): approximately 20% | SITH-1 mRNA expression level reduced by ([2]; ganciclovir 10 μM): ~40% | SITH-1 mRNA expression level reduced by ([2]; ganciclovir 30 μM): ≥ 80% | IC50 [3]: ~10 µM

heparin
SITH-1 expression in U373 cells [4]: suppressed

B1: SITH-1: HHV-6 latent infection protein, 159 amino acids, SEQ ID NO: 1 (protein)
chain: MGYEEKVSATGKTRLKILACLIVLILAAAITMLTLEIISNQKRTTTDLEAVTVALKHVSTSLASCTESTTSVHTDSVTSQPTKNKESRKKIEGKSPSWVQALTTASGIILLFCIMMIFITCSWTTEKDTEKSEVQSYASSVETLDSLNEAIIPKTEMNV
modifications: Human herpesvirus 6
intracellular calcium concentration [5]: increased
